Data published in BindingDB's records for doi:10.7270/Q2HM56V2 (The Scripps Research Institute Molecular Screening Center, 2008).
pEC50: −log10 of the molar value.

Biological target: T1, Signal transducer and activator of transcription 1-alpha/beta (Homo sapiens, UniProt P42224)
T1 sequence (P42224 whole entry): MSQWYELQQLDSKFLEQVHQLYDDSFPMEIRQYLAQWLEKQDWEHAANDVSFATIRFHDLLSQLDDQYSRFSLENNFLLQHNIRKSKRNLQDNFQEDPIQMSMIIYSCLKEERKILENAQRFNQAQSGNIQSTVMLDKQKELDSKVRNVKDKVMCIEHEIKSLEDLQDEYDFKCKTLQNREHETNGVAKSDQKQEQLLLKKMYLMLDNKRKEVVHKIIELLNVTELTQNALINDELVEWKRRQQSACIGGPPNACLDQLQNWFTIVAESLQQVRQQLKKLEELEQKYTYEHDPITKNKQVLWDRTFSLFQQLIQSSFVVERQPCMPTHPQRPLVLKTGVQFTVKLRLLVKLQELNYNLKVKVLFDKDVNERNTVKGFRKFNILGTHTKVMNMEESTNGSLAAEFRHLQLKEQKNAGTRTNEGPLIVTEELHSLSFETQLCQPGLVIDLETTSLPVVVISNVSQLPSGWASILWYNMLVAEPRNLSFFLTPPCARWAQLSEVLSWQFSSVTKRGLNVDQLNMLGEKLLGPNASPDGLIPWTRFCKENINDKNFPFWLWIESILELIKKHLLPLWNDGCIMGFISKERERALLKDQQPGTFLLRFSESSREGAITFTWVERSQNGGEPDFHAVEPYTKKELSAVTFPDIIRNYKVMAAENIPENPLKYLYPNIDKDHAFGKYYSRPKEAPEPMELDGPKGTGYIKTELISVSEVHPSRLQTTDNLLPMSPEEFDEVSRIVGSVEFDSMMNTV
Experiment: PubChem AID 1406

## Cc1[nH]n(-c2ccccc2)c(=O)c1C=C1C(=O)NC(=O)NC1=O
  pEC50: < 4.25
